Test results from patent US20220030866A1, “CONJUGATES OF AUXIN ANALOGS” (The State of Israel, Ministry of Agriculture & Rural …, priority 2019, published 2022).

Assays:
Format in all cases: in vivo
[1] = system: argan (Argania spinosa) cuttings; test: rooting of argan cuttings; conditions: in vivo
Procedure: The ability of exemplary conjugates to promote rooting in plants which are recalcitrant to rooting (in addition to the results obtained with Eucalyptus grandis in Example 3) was examined using cuttings of argan (Argania spinosa) and jojoba (Simmondsia chinensis) in a commercial nursery (Shorashim). The argan and jojoba cuttings were treated with 100 μM of a conjugate (any of Compounds 10-1t) with 6000 ppm IBA. The common treatment T-8 (talc with 8000 ppm IBA and a fungicide) or 6000 ppm IBA (without conjugate) served as a control.
(§1) Exemplary conjugates were also tested for rooting the hard-to-root species of avocado (VC801 rootstock) and argan, according to procedures described hereinabove.

[2] = system: avocado rootstock cuttings; test: rooting of avocado rootstock cuttings; conditions: for root architecture / root length of VC801 avocado cuttings compared to IBA control, in words: VC801 rootstock
Description: Avocado rootstock is extremely difficult to root. Currently, the common technique for propagating clones of avocado rootstock is to graft the desired rootstock on a seedling, and transfer to the dark to generate an etiolated branch. This branch can be rooted and grafted with the desired variety while still grafted on the seed [Frolich & Platt, California Avocado Society 1971-72 Yearbook 1972, 55:97-109]. However, the preparation of such twice-grafted seedlings is time-consuming and expensive.
The ability of exemplary conjugates to promote rooting in green avocado cuttings (in the presence of IBA) was therefore examined. In particular, Compounds 2h (MCPA-methanol), 4b (NAA-β-alanine methyl ester), 3g (2-DP-methyl-4-aminobenzoate), 3f (2-DP-p-toluidine), 1l (4-CPA-morpholine) and is (4-CPA-D-Trp) were tested.
as §1

mung bean cuttings = test: rooting of mung bean cuttings (number of adventitious roots per cutting); conditions: for effect on AR formation in mung bean cuttings, in words: tested at 2, 10 or 50 μM
Procedure: Mung bean cuttings have been used for many years as a model for assessing the effect of plant hormones and synthetic chemicals on the rooting process. In the present study, this system was used to ascertain activity of conjugates in inducing adventitious root (AR) formation, and to evaluate the rate of conjugate hydrolysis that releases the free active auxin. […] The rooting activity in this system is determined by the number of adventitious roots per cutting.
The mung bean model was used to examine the activity of conjugates of three phenoxy acids, 4-CPA, MCPA, and 2-DP, on rooting. For comparison, plants were treated with (unconjugated) IBA or with 2-DP conjugated to glycine methyl ester (Gly-ME).

[3] = system: cuttings from mature Eucalyptus grandis trees; test: rooting of cuttings from mature Eucalyptus grandis trees; conditions: 100 μM conjugate without IBA, or 28 mM (6000 ppm) IBA alone; submerging base or spraying; scored after 45-60 days
Procedure: Eight-year-old Eucalyptus grandis plants were grown from seeds and placed in a net house in 20 liter pots containing peat and tuff (70:30, v/v), drip irrigated and fertilized with 3 liters of Shefer™ 737 liquid fertilizer (ICL Fertilizers, Israel) per cubic meter of water. Cuttings were collected from branches which grew 2-2.5 meters above the ground. Cuttings were 2-3 mm thick branches, 15 cm long, with 1-2 pairs of leaves. The leaf blades were cut in half to decrease transpiration. Cuttings were treated with 6000 ppm IBA (potassium indole-3-butyric acid) for 1 minute with or without 100 μM of each tested compound. The tested compounds were either applied to the base of the cutting, with or without IBA and/or sprayed on the foliage in the presence of 0.05% Triton™ X-100 surfactant. Cuttings were rooted in rooting tables heated to 25° C. under constant 90% humidity, in a controlled-climate greenhouse. The rooting medium contained crushed polystyrene foam: vermiculite no. 3: pit (3:2:1, v/v/v). Rooting was recorded after 30-60 days. Roots system architecture was analyzed by WinRHIZO™ system scanner and software.
Exemplary conjugates prepared as described in Example 1 were tested for their ability to promote adventitious root (AR) formation in cuttings from mature eucalyptus (Eucalyptus grandis) trees. In this model, AR formation is difficult to induce, with 5-15% root development in the presence of IBA potassium salt [Abu-Abied et al., Plant J 2012, 71:787-799], such that effective AR formation indicates a potent root formation activity.
Various concentrations and mode of applications were tested for each compound in the presence or absence of IBA (the “gold standard” rooting enhancer). A concentration of 100 μM of each conjugate was used for an initial screen of 37 conjugates, in which the compounds were applied to the base of the cutting by dipping (submerging the cutting base in a solution of the conjugate for one minute) or to the foliage by spraying. After 45 days, the cuttings were scored for the presence of callus or roots.
Conjugates prepared as described herein were evaluated in a Eucalyptus grandis rooting model, according to procedures such as described hereinabove. The bases of cuttings (a 12-15 cm long branch with the two upper leaves, whose blades were cut in half) were dipped in a solution containing 6000 ppm IBA potassium salt and 50 μM of conjugate for 1 minute, and the leaves were sprayed with 50 μM of the same conjugate (mixed with 0.5% Triton™ X-100 surfactant). The cuttings were imbedded in a heated (25° C.) rooting table containing a 1:2:3 ratio of peat:vermiculite:polystyrene, under 90% relative humidity.

[4] = system: cuttings from mature Eucalyptus grandis trees; test: as above; conditions: 100 μM compound by submerging or spraying, with 6000 ppm IBA
Arabidopsis seedlings = test: root elongation inhibition in Arabidopsis seedlings; conditions: 50 nM, after 5 days
Procedure: Adventitious roots (ARs) were induced in intact plants, using previously described procedures [Gutierrez et al., Plant Cell 2009, 21:3119-3132; Abu-Abied et al., Plant J 2012, 71:787-799; Rasmussen et al., Plant Physiol 2012, 158:1976-1987]. Briefly, seeds were germinated on MS/0.8% agar plates supplemented with 3% sucrose. The plates were kept in the dark for 2 days at 4° C., then 5 days at 22° C. in the dark, 2 days in the light, 3 days in the dark and then additional 4 days in the light to complete 2 weeks when roots were counted using a stereoscope. Sensitivity to auxin and/or auxin analogs was determined by following root elongation on vertical plates. The 4-day-old seedlings were transferred to MS plates containing 0.05 or 0.5 μM IAA and the root length was measured after 5 days, including the number of LRs in each root and calculation of the LR density. Each treatment experiment included 10-15 plants and was repeated 3 times.
A common technique for evaluating auxin activity is by determining the ability of a compound to inhibit root elongation [Zolman et al., Genetics 2000, 156:1323-1337]. In order to use this assay for comparing auxin activities of different conjugates, the minimum concentration of free 4-CPA that is active in the root elongation inhibition assay was determined. Four days old seedlings were placed in vertical plates containing increasing concentrations of 4-CPA. The root lengths were marked daily during 5 days.
Based on the above results, the effect of conjugates of 4-CPA (Compounds 1o-1t) on root elongation after 5 days was determined at concentrations of 50 nM.

[5] = system: Pinus halepensis cuttings; test: rooting and root development in pine cuttings; conditions: 400 ppm IBA potassium salt + 5 ppm conjugate, 4 hours dip; 12 weeks
Procedure: The effects of exemplary D-amino acid conjugates of 4-CPA (Compounds to and Is) on rooting in Pinus halepensis cuttings were compared with those of 2-DP-glycine methyl ester conjugate (2-DP-Gly). Rooting mature pine cuttings (i.e., cuttings that are taken from trees more than 4 years old) is very difficult.
Apical cuttings were taken from 7-year-old trees, stored for 4 weeks at 4° C., and treated by dipping the cutting bases for 4 hours in the following solution: 400 ppm IBA potassium salt+5 ppm tested conjugate+0.1% Amistar™ fungicide (250 grams/liter azoxystrobin). The cuttings were evaluated after 12 weeks.

DR5:venus marker = test: auxin activity by DR5:venus fluorescence in Arabidopsis plants; conditions: 10 μM
Procedure: Imaging was performed using an SP8 Leica confocal microscope including solid-state lasers producing 405, 488, 514 and 552 nm light, and hybrid or PMT detectors. Objectives were either PL APO 20×/0.75, WD 0.62 mm or PL APO 63×/1.2 WD 0.3 mm. For fluorescence measurements, the Imaris™ spot detection option (Bitplane A.G.) was used to segment nuclei and calculate the average signal intensity.
One technique for assessing auxin activity of the 4-CPA amino acid conjugates utilized plants expressing nucleus-localized, fluorescent DR5:venus marker, the expression level of which is an indicator of intracellular auxin activity [Laskowski et al., PLoS Biol 2008, 6:e307]. Four days old seedlings grown on regular MS medium were transferred to plates containing 10 μM of the tested compounds and fluorescence was inspected by confocal microscope after 24 hours.
In order to assess the ability of the abovementioned sodium salts to penetrate the cells and activate an auxin response, an Arabidopsis DR5-Venus model was utilized (as described hereinabove). The plants were exposed to 10 μM of each compound for 24 hour; MS medium was used as a negative control, and the related Compounds 1p, 1r and 1t were used as positive controls.

[6] = Table 1, 10 μM, water control 29.6
[7] = Table 1, 50 μM, water control 29.6

## COC(=O)[C@H](CC(N)=O)NC(=O)COc1ccc(Cl)cc1 [4-CPA-L-Asn-methyl ester]
[1]
  number of roots per cutting in argan clone YM3 compared to IBA control, in words: considerably increased the number of roots per cutting
[2]
  root architecture / root length of VC801 avocado cuttings compared to IBA control, in words: considerably increased root length

## COC(=O)[C@H](Cc1cnc[nH]1)NC(=O)COc1ccc(Cl)cc1 [4-CPA-L-His-methyl ester]
[1]
  number of roots per cutting in argan clone YM3 compared to IBA control, in words: considerably increased the number of roots per cutting
[2]
  root architecture / root length of VC801 avocado cuttings compared to IBA control, in words: considerably increased root length

## O=C(COc1ccc(Cl)cc1)NCCO [Compound 1a, 4-CPA-ethanolamine]
Mung bean cuttings; [6]
  rooting of mung bean cuttings (number of roots per cutting): 49.5
Mung bean cuttings; [7]
  rooting of mung bean cuttings (number of roots per cutting): 14.9
[3]
  percentage of cuttings which exhibited rooting, stand-alone treatment: 15%
[4]
  rooting in combination with IBA compared with IBA alone, in words: enhanced rooting in comparison with IBA alone

## COC(=O)CCNC(=O)COc1ccc(Cl)cc1 [Compound 1b, 4-CPA-β-alanine methyl ester]
Mung bean cuttings; [6]
  rooting of mung bean cuttings (number of roots per cutting): 0
Mung bean cuttings; [7]
  rooting of mung bean cuttings (number of roots per cutting): 0
[4]
  rooting in combination with IBA compared with IBA alone, in words: enhanced rooting in comparison with IBA alone

## Cc1ccc(NC(=O)COc2ccc(Cl)cc2)cc1 [Compound 1f, 4-CPA-p-toluidine]
Mung bean cuttings; [6]
  rooting of mung bean cuttings (number of roots per cutting): 0
Mung bean cuttings; [7]
  rooting of mung bean cuttings (number of roots per cutting): 0
[4]
  rooting in combination with IBA compared with IBA alone, in words: enhanced rooting in comparison with IBA alone

## COC(=O)c1ccc(NC(=O)COc2ccc(Cl)cc2)cc1 [Compound 1g, 4-CPA-methyl-4-aminobenzoate]
Mung bean cuttings; [6]
  rooting of mung bean cuttings (number of roots per cutting): 0
Mung bean cuttings; [7]
  rooting of mung bean cuttings (number of roots per cutting): 0
[4]
  rooting in combination with IBA compared with IBA alone, in words: enhanced rooting in comparison with IBA alone

## COC(=O)C[C@H](NC(=O)COc1ccc(Cl)cc1)C(=O)OC [Compound 1r, 4-CPA-L-Asp-methyl diester]
Mung bean cuttings; Table 2, 2 μM
  rooting of mung bean cuttings (number of roots per cutting): 121
Mung bean cuttings; Table 2, 10 μM
  rooting of mung bean cuttings (number of roots per cutting): 34
Mung bean cuttings; Table 2, 50 μM
  rooting of mung bean cuttings (number of roots per cutting): 0
Mung bean cuttings
  effect on AR formation in mung bean cuttings, in words: exhibited more activity than the D-Asp-methyl ester conjugate
Arabidopsis seedlings
  effect on root elongation relative to control, in words: inhibited root elongation relative to control
[4]
  rooting in combination with IBA compared with IBA alone, in words: at least as potent as that of their corresponding D-amino acid conjugates

## COC(=O)CNC(=O)C(C)Oc1ccc(Cl)cc1Cl (centres unmarked) [Compound 2-DP-Gly, reference compound]
Mung bean cuttings; [7]
  rooting of mung bean cuttings (number of roots per cutting): 97.2
Mung bean cuttings
  effect on AR formation in mung bean cuttings, in words: positively correlated to dose
[5]
  Degree of root development Medium (%): 6.6%
  Degree of root development Weak (%): 46.7%
  Degree of root development Well-developed (%): 46.7%
  Rooting rate (%): 87.5%

## Cc1ccc(NC(=O)C(C)Oc2ccc(Cl)cc2Cl)cc1 (centres unmarked) [Compound 3f, 2-DP-p-toluidine]
[2]; vc51 rootstock, IBA with compound
  roots per cutting of green avocado branches compared with etiolated branches treated with IBA, in words: considerably more roots per cutting
[2]; vc51 rootstock, IBA with compound, compared with IBA alone
  rooting success rate of green avocado branches, in words: considerably enhanced the rooting success rate
[4]
  rooting in combination with IBA compared with IBA alone, in words: enhanced rooting in comparison with IBA alone

## COC(=O)C(C)Oc1ccc(Cl)cc1Cl (centres unmarked) [Compound 3h, 2-DP-methanol]
[4]
  rooting in combination with IBA compared with IBA alone, in words: enhanced rooting in comparison with IBA alone

## COC(=O)CNC(=O)COc1ccc(Cl)cc1 [Compound 4-CPA-Gly, 4-CPA-Gly-methyl ester]
Mung bean cuttings; FIGS. 4A, 4B
  appearance of the base of mung bean cuttings: appeared swollen, but no AR developed
Mung bean cuttings
  effect on AR formation in mung bean cuttings, in words: induced a similar rooting rate only at the lowest tested concentration of 2 μM
[4]
  rooting in combination with IBA compared with IBA alone, in words: exhibited lower rooting activity than the other conjugates

## CC(C)[C@H](NC(=O)COc1ccc(Cl)cc1)C(=O)[O-].[Na+] [Compound 83, 4-CPA-L-Val sodium salt]
DR5:venus marker
  DR5 fluorescence (auxin activity), in words: about as active as their non-water soluble methyl esters

## O=C([O-])C[C@H](NC(=O)COc1ccc(Cl)cc1)C(=O)[O-].[Na+].[Na+] [Compound 84, 4-CPA-L-Asp disodium salt]
DR5:venus marker
  DR5 fluorescence (auxin activity), in words: did not promote DR5 activity
